Results from ChEMBL document CHEMBL2413072, “Synthesis and in vitro anticancer studies of novel C-2 arylidene congeners of lantadenes” (2013).

Legend:
Assay type in all cases: functional
HCT-116 [1] = assay: Growth inhibition of human HCT116 cells by sulforhodamine B assay
HOP-62 = assay: Growth inhibition of human HOP62 cells by sulforhodamine B assay
HOP-92 = assay: Growth inhibition of human HOP92 cells by sulforhodamine B assay
MDA-MB-435 = assay: Growth inhibition of human MDA-MB-435 cells assessed as cell growth at 10^-8 M by sulforhodamine B assay; details: read-out: Activity
Malme-3M = assay: Growth inhibition of human MALME-3M cells assessed as cell growth at 10^-8 M by sulforhodamine B assay; details: read-out: Activity
SW-620 = assay: Growth inhibition of human SW620 cells assessed as cell growth at 10^-8 M by sulforhodamine B assay; details: read-out: Activity
HCT-15 = assay: Growth inhibition of human HCT15 cells assessed as cell growth at 10^-8 M by sulforhodamine B assay; details: read-out: Activity
[2] = Growth inhibition of human HCC2998 cells assessed as cell growth at 10^-8 M by sulforhodamine B assay; details: HCC 2998, read-out: Activity
COLO 205 = assay: Growth inhibition of human COLO205 cells assessed as cell growth at 10^-8 M by sulforhodamine B assay; details: read-out: Activity
NCI-H460 [3] = assay: Growth inhibition of human NCI-H460 cells assessed as cell growth at 10^-8 M by sulforhodamine B assay; details: read-out: Activity
NCI-H322M = assay: Growth inhibition of human NCI-H322M cells assessed as cell growth at 10^-8 M by sulforhodamine B assay; details: read-out: Activity
MOLT-4 = assay: Growth inhibition of human MOLT4 cells assessed as cell growth at 10^-8 M by sulforhodamine B assay; details: read-out: Activity
[4] = Growth inhibition of human Hs 578T cells by sulforhodamine B assay
DU-145 = assay: Growth inhibition of human DU145 cells by sulforhodamine B assay
SK-MEL-5 = assay: Growth inhibition of human SK-MEL-5 cells by sulforhodamine B assay
U-251 = assay: Growth inhibition of human U251 cells by sulforhodamine B assay
SF-295 = assay: Growth inhibition of human SF295 cells by sulforhodamine B assay
PC-3 [5] = assay: Growth inhibition of human PC3 cells assessed as cell growth at 10^-4 M by sulforhodamine B assay; details: read-out: Activity
SK-MEL-28 = assay: Growth inhibition of human SK-MEL-28 cells assessed as cell growth at 10^-4 M by sulforhodamine B assay; details: read-out: Activity
LOX IMVI [6] = assay: Growth inhibition of human LOXIMVI cells assessed as cell growth at 10^-4 M by sulforhodamine B assay; details: read-out: Activity
SN12C = assay: Growth inhibition of human SN12C cells assessed as cell growth at 10^-6 M by sulforhodamine B assay; details: read-out: Activity
OVCAR-8 = assay: Growth inhibition of human OVCAR8 cells assessed as cell growth at 10^-6 M by sulforhodamine B assay; details: read-out: Activity
SF-539 = assay: Growth inhibition of human SF539 cells assessed as cell growth at 10^-6 M by sulforhodamine B assay; details: read-out: Activity
HCT-116 [7] = assay: Growth inhibition of human HCT116 cells assessed as cell growth at 10^-6 M by sulforhodamine B assay; details: read-out: Activity
RPMI-8226 = assay: Growth inhibition of human RPMI8226 cells assessed as cell growth at 10^-6 M by sulforhodamine B assay; details: read-out: Activity
K562 [8] = assay: Growth inhibition of human K562 cells assessed as cell growth at 10^-6 M by sulforhodamine B assay; details: read-out: Activity
RXF 393 [9] = assay: Growth inhibition of human RXF393 cells assessed as cell growth at 10^-7 M by sulforhodamine B assay; details: read-out: Activity
SK-OV-3 = assay: Growth inhibition of human SKOV3 cells assessed as cell growth at 10^-7 M by sulforhodamine B assay; details: read-out: Activity
[10] = Growth inhibition of human NCI-ADR-RES cells assessed as cell growth at 10^-7 M by sulforhodamine B assay; details: read-out: Activity
LOX IMVI [11] = assay: Growth inhibition of human LOXIMVI cells assessed as cell growth at 10^-7 M by sulforhodamine B assay; details: read-out: Activity
KM12 = assay: Growth inhibition of human KM12 cells assessed as cell growth at 10^-7 M by sulforhodamine B assay; details: read-out: Activity
NCI-H460 [12] = assay: Growth inhibition of human NCI-H460 cells assessed as cell growth at 10^-7 M by sulforhodamine B assay; details: read-out: Activity
NCI-H522 = assay: Growth inhibition of human NCI-H522 cells assessed as cell growth at 10^-7 M by sulforhodamine B assay; details: read-out: Activity
K562 [13] = assay: Growth inhibition of human K562 cells assessed as cell growth at 10^-7 M by sulforhodamine B assay; details: read-out: Activity
T47D = assay: Growth inhibition of human T47D cells assessed as cell growth at 10^-8 M by sulforhodamine B assay; details: read-out: Activity
PC-3 [14] = assay: Growth inhibition of human PC3 cells assessed as cell growth at 10^-8 M by sulforhodamine B assay; details: read-out: Activity
RXF 393 [15] = assay: Growth inhibition of human RXF393 cells assessed as cell growth at 10^-8 M by sulforhodamine B assay; details: read-out: Activity
ACHN = assay: Growth inhibition of human ACHN cells assessed as cell growth at 10^-8 M by sulforhodamine B assay; details: read-out: Activity
[16] = Growth inhibition of human NCI-ADR-RES cells assessed as cell growth at 10^-8 M by sulforhodamine B assay; details: read-out: Activity
[17] = read-out: LC50 (the source's name)
[18] = read-out: pLC50 (the source's name) (converted)

## C/C=C(/C)C(=O)O[C@@H]1CC(C)(C)C[C@H]2C3=CC[C@@H]4[C@@]5(C)CCC(=O)C(C)(C)[C@@H]5CC[C@@]4(C)[C@]3(C)CC[C@@]12C(=O)O [LANTADENE A]
HCT-116 [1]; read-out: GI50
  GI50: 3.62 µM
HCT-116 [1]; read-out: LC50
  LC50: > 100 µM
HCT-116 [1]; read-out: TGI
  TGI: > 100 µM
HCT-116 [1]; read-out: pGI50 (converted)
  GI50: 3.63 µM
HCT-116 [1]; read-out: pLC50 (converted)
  LC50: > 100 µM
HCT-116 [1]; read-out: pTGI (converted)
  TGI: > 100 µM
HOP-62; read-out: GI50
  GI50: 20.6 µM
HOP-62; read-out: LC50
  LC50 (concentration killing 50% of cells): > 100 µM
HOP-62; read-out: TGI
  TGI: > 100 µM
HOP-62; read-out: pGI50 (converted)
  GI50: 20.4 µM
HOP-62; read-out: pLC50 (converted)
  LC50 (concentration killing 50% of cells): > 100 µM
HOP-62; read-out: pTGI (converted)
  TGI: > 100 µM
HOP-92; read-out: GI50
  GI50: 1.19 µM
HOP-92; [17]
  CC50: > 100 µM
HOP-92; read-out: TGI
  TGI: 5.36 µM
HOP-92; read-out: pGI50 (converted)
  GI50: 1.2 µM
HOP-92; [18]
  CC50: > 100 µM
HOP-92; read-out: pTGI (converted)
  TGI: 5.37 µM
MDA-MB-435
  growth at 0.01 µM: 96%
Malme-3M
  growth at 0.01 µM: 98%
SW-620
  growth at 0.01 µM: 100%
HCT-15
  growth at 0.01 µM: 100%
[2]
  growth at 0.01 µM: 106%
COLO 205
  growth at 0.01 µM: 106%
NCI-H460 [3]
  growth at 0.01 µM: 104%
NCI-H322M
  growth at 0.01 µM: 99%
MOLT-4
  growth at 0.01 µM: 104%
[4]; read-out: GI50
  GI50: 5.1 µM
[4]; [17]
  CC50: > 100 µM
[4]; read-out: TGI
  TGI: > 100 µM
[4]; read-out: pGI50 (converted)
  GI50: 5.13 µM
[4]; [18]
  CC50: > 100 µM
[4]; read-out: pTGI (converted)
  TGI: > 100 µM
DU-145; read-out: GI50
  GI50: 5.92 µM
DU-145; [17]
  CC50: > 100 µM
DU-145; read-out: TGI
  TGI: > 100 µM
DU-145; read-out: pGI50 (converted)
  GI50: 5.89 µM
DU-145; [18]
  CC50: > 100 µM
DU-145; read-out: pTGI (converted)
  TGI: > 100 µM
SK-MEL-5; read-out: GI50
  GI50: 1.22 µM
SK-MEL-5; [17]
  CC50: > 100 µM
SK-MEL-5; read-out: TGI
  TGI: 4.3 µM
SK-MEL-5; read-out: pGI50 (converted)
  GI50: 1.23 µM
SK-MEL-5; [18]
  CC50: > 100 µM
SK-MEL-5; read-out: pTGI (converted)
  TGI: 4.27 µM
U-251; read-out: GI50
  GI50: 3.99 µM
U-251; [17]
  CC50: > 100 µM
U-251; read-out: TGI
  TGI: > 100 µM
U-251; read-out: pGI50 (converted)
  GI50: 3.98 µM
U-251; [18]
  CC50: > 100 µM
U-251; read-out: pTGI (converted)
  TGI: > 100 µM
SF-295; read-out: GI50
  GI50: 2.77 µM
SF-295; [17]
  CC50: > 100 µM
SF-295; read-out: TGI
  TGI: 15.4 µM
SF-295; read-out: pGI50 (converted)
  GI50: 2.75 µM
SF-295; [18]
  CC50: > 100 µM
SF-295; read-out: pTGI (converted)
  TGI: 15.5 µM
PC-3 [5]
  growth at 100 µM: 13%
SK-MEL-28
  growth at 100 µM: 42%
LOX IMVI [6]
  growth at 100 µM: 33%
SN12C
  growth at 1 µM: 85%
OVCAR-8
  growth at 1 µM: 95%
SF-539
  growth at 1 µM: 106%
HCT-116 [7]
  growth at 1 µM: 86%
RPMI-8226
  growth at 1 µM: 64%
K562 [8]
  growth at 1 µM: 87%
RXF 393 [9]
  growth at 0.1 µM: 91%
SK-OV-3
  growth at 0.1 µM: 114%
[10]
  growth at 0.1 µM: 104%
LOX IMVI [11]
  growth at 0.1 µM: 95%
KM12
  growth at 0.1 µM: 102%
NCI-H460 [12]
  growth at 0.1 µM: 98%
NCI-H522
  growth at 0.1 µM: 97%
K562 [13]
  growth at 0.1 µM: 100%
T47D
  growth at 0.01 µM: 99%
PC-3 [14]
  growth at 0.01 µM: 93%
RXF 393 [15]
  growth at 0.01 µM: 95%
ACHN
  growth at 0.01 µM: 110%
[16]
  growth at 0.01 µM: 104%
